The bioavailability is dose-corrected exposure relative to a reference, in per cent. The low end stands for poor availability, the high end for good availability.

Where only a bound is given, the exact number is not on record here.

Five compounds from patent publication US11453674B2, “Heterocyclic compound, preparation method and use thereof in medicine” (SUZHOU SINOVENT PHARMACEUTICALS CO., LTD., priority 2019, dated 2022) can be followed below.

This data set can be described thus: Pharmacokinetics in male SD rats (i.v. and p.o.). It is filed as in vivo. As to conditions: Sprague-Dawley (SD), rat, plasma, po, p.o. 10 mg/kg vs i.v. 1 mg/kg. Here is the method:
Example 29: Pharmacokinetics
Methodology for pharmacokinetics of compounds in rats:
1. Male SD rats were acclimatized in the animal room for 7 days after arrival.
2. Six SD rats were randomized into 2 groups, with 3 animals in each group. One group was administered by oral gavage (p.o.), and the other group was treated via tail vein injection (i.v.). Rats in the p.o. group were deprived of food overnight before administration.
3. After administration, about 200 μL of blood was collected from the orbital venous plexus at various time points.
4. The collected blood samples were centrifuged at 12000 rpm for 5 min at 4° C., and then the upper plasma samples were collected and preserved in a refrigerator at −20° C.
5. The procedures were summarized as follows:
6. LC-MS/MS (UPLC-MS/MS: liquid chromatography Waters Acquity UPLC (USA) and mass spectrometry 5500 Q Trap (Applied Biosystem/MDS SCIEX) or HPLC-MS\MS: liquid chromatography Agilent 1200 series (USA) and mass spectrometry API 4000 (Applied Biosystem/MDS SCIEX)) were used to determine the concentration of the compound in the plasma.
The pharmacokinetic parameters were calculated using the pharmacokinetic software WinNonlin [Model: Phoenix™ WinNonlin® 6.1; Manufacturer: Pharsight Corporation]. [Phoenix 1.1 User's Guide: p 251-p 300]

As to `CCc1nc2ncccn2c1C(=O)c1cc(Br)c(O)c(Br)c1` [Example 20, 2,6-dibromo-4-([2-ethylimidazo[1,2-a]pyrimidin-3-yl]carbonyl) phenol], the bioavailability was more than 30%.
On to `CCc1nc2ncc(F)cn2c1C(=O)c1cc(Br)c(O)c(C#N)c1` [Example 14, 3-bromo-5-(2-ethyl-6-fluoroimidazo[1,2-a]pyrimidine-3-carbonyl)-2-hydroxybenzonitrile], for which the bioavailability was more than 30%.
The value for `CCc1nc2cc(Cl)ncn2c1C(=O)c1cc(Br)c(O)c(Br)c1` [Example 21, (7-chloro-2-ethylimidazo[1,2-f]pyrimidin-3-yl)(3,5-dibromo-4-hydroxyphenyl)methanone] was more than 30%; that for `CCc1nc2ncc(C(F)(F)F)cn2c1C(=O)c1cc(Br)c(O)c(Br)c1` [Example 5, (3,5-dibromo-4-hydroxyphenyl)(2-ethyl-6-(trifluoromethyl)imidazo[1,2-a]pyrimidin-3-yl)methanone] was more than 30%; that for `CCc1nc2ncc(F)cn2c1C(=O)c1cc(Br)c(O)c(Br)c1` [Example 4, (3,5-dibromo-4-hydroxyphenyl)(2-ethyl-6-fluoroimidazo[1,2-a]pyrimidin-3-yl)methanone] was more than 30%.
